Entries after “also recorded” stand apart in the source; their conditions may differ.

For data set [1], the system named is IL-1α. The data set can be described thus: Human skin organ culture with UVB stressor, IL-1α secretion in the medium. Type of data set: cell-based. As to conditions: UVB. On the procedure: (§1) Topical exposure till 48 hours in total (24 hr recovery following topical application+24 hr after exposure to UVB irradiation) with UVB radiation as stressor on human skin model
(§2) The following general procedure was used in the study:
(§3) Day 1: Topical application of 3 μl of each sample solution on the epidermis of each skin explant. Incubate for 24 hours. SDS 10% was applied only once, and was not farther irradiated with UVB.
(§4) Day 2: Skin explants were washed once with PBS and irradiated with UVB lamp at 200 mJ/cm2. After radiation it was incubated for 30 min and then topically apply each treatment (sample solution) again. Control was not irradiated under UVB light. UVB radiated control was without any treatment except radiation.
(§5) Day 3: Viability and Caspase3 activity were measured for the epidermis layer. The medium was collected for cytokines test.
FIG. 5 illustrates the IL-1α secretion results in the medium as observed with 3 to 4 repetition of the tests. In FIG. 5 the IL-1α secretion of the irradiated sample “UVB” was selected as 100% and it equals 8.1±1.0 pg/ml.

For the next data set, the system named is skin equivalents. Description: DNA microarray gene expression in skin equivalents, comparative with 3D complex and Retinol (Example 6). Type of data set: cell-based, human. As to conditions: Retinol 5 μM. On the procedure:
In the present study the biological activity on gene expression of the pRETINOL complex was compared to the activity of a composition which was previously described in [13] and [14] and referred to herein as 3D complex. The activity was further compared to that observed with Retinol (5 μM of Retinol in double distilled water).
On each array, treated vs. untreated samples were compared. Each array was processed and the data from all arrays was normalized to get the average expression and log fold change (log FC) for each gene on each array.
An analysis of full human genome was performed.
Further to the above analysis, similar to the study presented in Example 5, major skin related pathways were selected from KEGG and wiki pathways list and the p-value and z-score were calculated for these pathways.

In data set [2] the test system is human skin explants (epidermis). The data set can be described thus: Human skin organ culture without UVB stressor, topical exposure till 96 hours, viability by MTT assay. Type of data set: cell-based. As to conditions: no UVB; 96 hours of topical application; vs control. On the procedure: (§6) Topical Exposure Till 96 Hours without External UVB Radiation as Stressor on Human Skin Model
(§7) Day 1: Topical application of 3 μl of each solution on the epidermis of each skin explant. Incubate for 24 hours. (SDS Irritation control: topical application of 3 ul SDS 10% was applied on the skin model at day 1 only. The rest of the days samples were untouched).
(§8) Day 2: Topical application of 3 μl of each solution on the epidermis of each skin explant. Incubate for 24 hours in fresh medium (medium was not collected). (UVB control: after 24 hours incubation with 3 μl H2O skin was irradiated with 200 mJ/cm2 UVB. The rest of the experiment days sample were topically applied with H2O, as control).
(§9) Day 3: Topical application of 3 μl of each solution on the epidermis of each skin explant. Incubate for 24 hours in fresh medium (medium was collected)—48 hours of total topical incubation.
(§10) Day 4: Topical application of 3 μl of each solution on the epidermis of each skin explant. Incubate for 24 hours in fresh medium (medium was collected)—72 hours of total topical incubation.
Day 5: Topical application of 3 μl of each solution on the epidermis of each skin explant. Incubate for 24 hours in fresh medium (medium was collected)—96 hours of total topical incubation. MTT assay was performed. […]
The viability of the various skin explants was measured by the MTT assay.
For orientation: Tetrazolium dyes change colour on reduction, which living cells bring about.

Data set [3] has the same test system. The data set can be described thus: Human skin organ culture with UVB stressor, viability by MTT assay. Type of data set: cell-based. The following applies: UVB 200 mJ/cm2, topical 3 μl before and after irradiation, 48 hours in total; compared to irradiated control. On the procedure: as §1, §2, §3, §4, §5
FIG. 2 illustrates a flow diagram of topical exposure/treatment till 48 hours, 24 hr recovery following topical application +24 hr after exposure to UVB irradiation) with UVB radiation as stressor on human skin model experiment. In the Experiment the SDS irritation control sample was a skin explant that was topical applied with 3 μl SDS 10% solution at day 1 only.
The viability of the various skin explants was measured by the 5-dimethylthiazol-2-yl]-2,5-diphenyl tetrazolium bromide (MTT) assay.

Data set [4] has as its system IL-1α. Description: Human skin organ culture without UVB stressor, IL-1α secretion. Type of data set: cell-based. As to conditions: no UVB; Retinol 1.0%; 48, 72 and 96 hours. On the procedure:
as §6, §7, §8, §9, §10
(§11) Day 5: Topical application of 3 μl of each solution on the epidermis of each skin explant. Incubate for 24 hours in fresh medium (medium was collected)—96 hours of total topical incubation. MTT assay was performed.
FIG. 9A illustrates the IL-1α secretion results in the medium. In FIG. 9A the IL-1α secretion of the H2O sample was used as a control (9.0±0.7 pg/ml […]) for each time point. FIG. 9B is a magnification of FIG. 9A.

The test system of data set [5] is TNFα. The data set can be described thus: Human skin organ culture with UVB stressor, TNFα secretion in the medium. The class given is cell-based. The following applies: UVB. On the procedure:
as §1, §2, §3, §4, §5
FIG. 4 illustrates the TNFα secretion results in the medium as observed with 2 to 4 repetition of the tests. In FIG. 4 the TNFα secretion of the irradiated sample “UVB” was selected as 100% and it equals 53±30 pg/ml.

Data set [6] concerns TNFα. The data set can be described thus: Human skin organ culture without UVB stressor, TNFα secretion. Type of data set: cell-based. As to conditions: no UVB. On the procedure:
as §6, §7, §8, §9, §10, §11
FIG. 8 illustrates the TNFα secretion tested results. In FIG. 8 the TNFα secretion of the H2O sample was used as a control (0.35±0.05 pg/ml) for each time point.

The test system of data set [7] is human primary fibroblasts. Description: Hyaluronic acid production assay (ELISA). As to conditions: Retinol 1.0 μM in the culture media; 48 hours. The class given is cell-based. On the procedure: The human primary fibroblast cell culture was grown at an 80% confluence in Dulbecco's Modified Eagle's High glucose (Hg) medium (DMEM) culture medium containing 10% fetal bovine serum, 100 U/ml penicillin, and 100 U/ml streptomycin. The cells were cultivated in 6 wells plates.
The pRetinol complex was added at a final concentrations of. Osmoter 0.2%, Dunaliella salina extract 1.2%, Niacinimide 0.04% and 6.24 ppm of β-Carotene i.e., 2.5 times dilution (the dilution was necessary in view of the human primary fibroblast cells culture being more sensitive than skin full organ culture). Retinol was added to the medium at a final concentration of 1.0 μM.
The cells were incubated at 37° C., 5% CO2 at a 100% RH for 48 hours. After incubation the cells were extracted using RIPA buffer collected to a blending Eppendorf and ground using stain steal beads and a bullet blender for 5 min. The samples were centrifuged for 15 min at 5000 rpm and the supernatant was collected.
BCA Protein concentration assay were performed on all the samples. The protein level for all samples was dilated to reach a concentration of 0.1 ng/ml of protein, diluted with PBS. Samples contain a protein concentration of 0.1 ng/ml were tested for hyaluronic ELISA assay kit (R&D systems, ELISA kit). Results were obtained as ng/ml of hyaluronic acid per 1 μg of protein. […]
On the technique in general: ELISA stands for enzyme-linked immunosorbent assay.

`CC1=C(/C=C/C(C)=C/C=C/C(C)=C/CO)C(C)(C)CCC1` [Retinol]: the “increase of IL-1α secretion” value in the data set with IL-1α [1] (Retinol 0.05% (w/w) in EtOH) came to 83%; in the data set on IL-1α [1] (Retinol 0.5% (w/w) in EtOH), 50%; with IL-1α [1] (Retinol 1.0% (w/w) in EtOH) it was 53%. The z-score in the data set on skin equivalents (KEGG_APOPTOSIS) is reported as 1.0758; with skin equivalents (KEGG_BASE_EXCISION_REPAIR), −0.2818; in the data set on skin equivalents (KEGG_NF_KAPPA_B_SIGNALING_PATHWAY), −0.4673; in the data set with skin equivalents (KEGG_NOD-LIKE_RECEPTOR SIGNALING PATHWAY), −0.3502; in the data set with skin equivalents (KEGG_SPHINGOLIPID_METABOLISM), −0.6417; with skin equivalents (KEGG_TNF_SIGNALING_PATHWAY) it was −1.1097. Further, the values for the z-score in the data set with skin equivalents (KEGG_YERSINIA_INFECTION) and in the data set with skin equivalents (WIKI_KERATINIZATION) were 1.5054 and 10.548, respectively. In data set [2], the “viability (MTT, mitochondrial activity) of skin explants” value is “did not cause increase or reduction of viability”. Besides, the “viability (MTT, mitochondrial activity) of epidermis” value in data set [3] is reported as “increased mitochondrial activity”. Also, the IL-1α secretion entry with IL-1α [4] is “increased; also recorded: caused an increase”. Also, the results for the “reduction of TNFα secretion compared to the irradiated sample” value with TNFα [5] (Retinol 0.5% (w/w) in EtOH) and in the data set with TNFα [5] (Retinol 1.0% (w/w) in EtOH) were 56% and 45%, respectively. For the same compound, the TNFα secretion result in the data set on TNFα [6] (Retinol 0.5%, after incubation of 72 hours, H2O control 0.35±0.05 pg/ml) was “below the detection level”; with TNFα [6] (Retinol 1.0%, after incubation of 72 hours, H2O control 0.35±0.05 pg/ml) it was “below the detection level”; in the data set on TNFα [6] (Retinol for 48, 72 and 96 hours, reduction also observed with ethanol only) it was “caused a reduction”. Moreover, the “production of hyaluronic acid compared to the control sample” value in data set [7] was “induce the production of hyaluronic acid”.

The record behind these values is patent publication US20230172925A1, “SKIN-CARE COMPOSITIONS AND USES THEREOF” (AHAVA - DEAD SEA LABORATORIES LTD., priority 2019, published 2023).
